In patent US7323485B2, “4-(substituted cycloalkylmethyl) imidazole-2-thiones, 4-(substituted cycloalkenylmethyl) imidazole-2-thiones, 4-(substituted cycloalkylmethyl) imidazol-2-ones and 4-(substituted cycloalkenylmethyl) imidazol-2-ones and related compounds” (Allergan, Inc., priority 2002, dated 2008):

Experiments:
[1] = target: T1, alpha2B adrenergic receptors (Homo sapiens, UniProt P18089); assay: Receptor Selection and Amplification Technology (RSAT) assay, alpha2B; assay type: cell-based; conditions: for EC50: NA = not active at concentrations less than 10 micromolar, read-out: Alpha 2B EC50; for Alpha 2B intrinsic activity: fraction of maximal effect of standard full agonist brimonidine (UK14304)
T1 construct: expressed in transfected cells; host or cells: NIH-3T3
T1 sequence (P18089 1-450): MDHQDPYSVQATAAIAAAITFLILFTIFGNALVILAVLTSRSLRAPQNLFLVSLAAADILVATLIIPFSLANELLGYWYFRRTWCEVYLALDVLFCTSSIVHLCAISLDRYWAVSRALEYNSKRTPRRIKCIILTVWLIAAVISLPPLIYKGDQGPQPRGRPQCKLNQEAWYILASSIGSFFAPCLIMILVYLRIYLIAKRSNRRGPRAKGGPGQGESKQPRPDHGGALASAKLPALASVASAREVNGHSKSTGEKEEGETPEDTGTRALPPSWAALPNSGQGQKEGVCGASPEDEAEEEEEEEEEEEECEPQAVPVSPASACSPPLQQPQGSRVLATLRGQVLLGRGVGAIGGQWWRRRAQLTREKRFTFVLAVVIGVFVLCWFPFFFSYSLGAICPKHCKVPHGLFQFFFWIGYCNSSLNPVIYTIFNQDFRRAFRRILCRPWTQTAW
From the text: (§1) The imidazole-2-thione compounds of the invention are agonists of alpha2 adrenergic receptors, particularly they tend to be specific or selective agonists of alpha2B and/or to a lesser extent alpha2C adrenergic receptors, in preference over alpha2A adrenergic receptors. […] Al., 1995, Pharmacol. Toxicol. 76, pp. 308-311 (incorporated herein by reference) and is also described below. Another reference pertinent to this assay is Conklin et al. (1993) Nature 363:274-6, also incorporated herein by reference.
(§2) Receptor Selection and Amplification Technology (RSAT) Assay
(§3) The RSAT assay measures a receptor-mediated loss of contact inhibition that results in selective proliferation of receptor-containing cells in a mixed population of confluent cells. The increase in cell number is assessed with an appropriate transfected marker gene such as β-galactosidase, the activity of which can be easily measured in a 96-well format. Receptors that activate the G protein, Gq, elicit this response. Alpha2 receptors, which normally couple to Gi, activate the RSAT response when coexpressed with a hybrid Gq protein that has a Gi receptor recognition domain, called Gq/i5.
(§4) NIH-3T3 cells are plated at a density of 2×10^6 cells in 15 cm dishes and maintained in Dulbecco's modified Eagle's medium supplemented with 10% calf serum. One day later, cells are cotransfected by calcium phosphate precipitation with mammalian expression plasmids encoding p-SV-β-galactosidase (5-10 μg), receptor (1-2 μg) and G protein (1-2 μg). 40 μg salmon sperm DNA may also be included in the transfection mixture. Fresh media is added on the following day and 1-2 days later, cells are harvested and frozen in 50 assay aliquots. Cells are thawed and 100 μl added to 100 μl aliquots of various concentrations of drugs in triplicate in 96-well dishes. Incubations continue 72-96 hr at 37 EC. After washing with phosphate-buffered saline, β-galactosidase enzyme activity is determined by adding 200 μl of the chromogenic substrate (consisting of 3.5 mM o-nitrophenyl-β-D-galactopyranoside and 0.5% nonidet P-40 in phosphate buffered saline), incubating overnight at 30 EC and measuring optical density at 420 nm. The absorbance is a measure of enzyme activity, which depends on cell number and reflects a receptor-mediated cell proliferation. The EC50 and maximal effect of each drug at each alpha2 receptor is determined. The efficacy or intrinsic activity is calculated as a ratio of the maximal effect of the drug to the maximal effect of a standard full agonist for each receptor subtype. Brimonidine, also called UK14304, the chemical structure of which is shown below, is used as the standard agonist for the alpha2A, alpha2B and alpha2C receptors.
(§5) The results of the RSAT assay with several exemplary compounds of the invention are disclosed in Table 1 above together with the chemical formulas of these examplary compounds. […] NA stands for “not active” at concentrations less than 10 micromolar. As is known EC50 is the concentration at which half of a given compound's maximal activity is observed.

[2] = target: T2, alpha2C adrenergic receptors (Homo sapiens, UniProt P18825); assay: Receptor Selection and Amplification Technology (RSAT) assay, alpha2C; assay type: cell-based; conditions: for EC50: NA = not active at concentrations less than 10 micromolar, read-out: Alpha 2C EC50; for Alpha 2C intrinsic activity: fraction of maximal effect of standard full agonist brimonidine (UK14304)
T2 construct: expressed in transfected cells; host or cells: NIH-3T3
T2 sequence (P18825 1-462): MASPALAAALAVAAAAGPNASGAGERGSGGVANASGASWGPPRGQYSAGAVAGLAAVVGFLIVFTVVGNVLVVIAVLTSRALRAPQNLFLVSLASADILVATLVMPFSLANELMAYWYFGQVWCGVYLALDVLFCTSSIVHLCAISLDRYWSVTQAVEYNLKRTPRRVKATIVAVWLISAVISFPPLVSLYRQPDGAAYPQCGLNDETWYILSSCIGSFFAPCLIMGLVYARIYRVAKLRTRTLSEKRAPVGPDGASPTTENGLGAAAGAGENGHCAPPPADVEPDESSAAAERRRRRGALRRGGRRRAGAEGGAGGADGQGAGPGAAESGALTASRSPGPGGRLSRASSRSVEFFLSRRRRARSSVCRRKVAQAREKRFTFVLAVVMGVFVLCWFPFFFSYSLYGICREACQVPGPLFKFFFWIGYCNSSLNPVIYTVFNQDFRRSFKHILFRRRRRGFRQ
From the text: as §1, §2, §3, §4, §5

SMILES	EC50 [1] [nM]	Alpha 2B intrinsic activity [1]	EC50 [2] [nM]	Alpha 2C intrinsic activity [2]
S=c1[nH]cc(CC2CCC3=C2CCCC3)[nH]1 (stereo not drawn)	30	1.06	602	0.55
O=C1C2=C(CCC1Cc1c[nH]c(=S)[nH]1)NCCC2 (stereo not drawn)	755	0.98	2260	0.88
S=c1[nH]cc(C2CCc3ccccc3C2)[nH]1 (stereo not drawn)	34	1.03	423	0.52
Cc1cccc2c1CC(c1c[nH]c(=S)[nH]1)C2 (stereo not drawn)	3	0.99	13	0.62
Cc1ccc2c(c1)CC(c1c[nH]c(=S)[nH]1)C2 (stereo not drawn)	27	1.12	374	0.45
S=c1[nH]cc(C2Cc3ccc(Br)cc3C2)[nH]1 (stereo not drawn)	28	0.87	321	0.38
S=c1[nH]cc(C2Cc3cccc(Br)c3C2)[nH]1 (stereo not drawn)	5	1.07	106	0.87
Cc1ccc(C)c2c1CC(c1c[nH]c(=S)[nH]1)C2	7	1.27	92	0.86
Cc1c(Cl)ccc2c1CC(c1c[nH]c(=S)[nH]1)C2 (stereo not drawn)	14	0.91	561	0.45
S=c1[nH]cc(C2Cc3ccc(Cl)c(Cl)c3C2)[nH]1 (stereo not drawn)	7	1	190	0.53
S=c1[nH]cc(C2Cc3cccc(I)c3C2)[nH]1 (stereo not drawn)	7	0.96	101	0.49
Fc1ccc2c(c1)C(Cc1c[nH]c(=S)[nH]1)CC2 (stereo not drawn)	34	1.01	42	0.63
Fc1cc2c(cc1F)C(Cc1c[nH]c(=S)[nH]1)CC2 (stereo not drawn)	354	0.363	662	0.38
S=c1[nH]cc(C2Cc3cccc(Cl)c3C2)[nH]1 (stereo not drawn)	< 2	1.15	45	0.74
S=c1[nH]cc(CC2CCc3c(Br)cccc32)[nH]1 (stereo not drawn)	87	0.73	168	0.59
S=c1[nH]cc(CC2CCCc3cccnc32)[nH]1 (stereo not drawn)	236	1.07	2820	0.46
Cc1ccc(C2=CCCC2Cc2c[nH]c(=S)[nH]2)cc1 (stereo not drawn)	2180	0.47	> 3000	0.46
COc1ccc(C2=CCCC2Cc2c[nH]c(=S)[nH]2)cc1 (stereo not drawn)	> 3000	0.56	568	0.47
N#Cc1ccc(C2=CCCC2Cc2c[nH]c(=S)[nH]2)cc1 (stereo not drawn)	498	0.91	155	1.01
O=[N+]([O-])c1cccc(C2=CCCC2Cc2c[nH]c(=S)[nH]2)c1 (stereo not drawn)	> 10000	–	2510	–
Fc1cccc(C2=CCC[C@H]2Cc2c[nH]c(=S)[nH]2)c1	191	0.53	916	0.37
Fc1cc(F)cc(C2=CCC[C@H]2Cc2c[nH]c(=S)[nH]2)c1	472	0.83	790	0.58
Fc1ccc(C2=CCC[C@@H]2Cc2c[nH]c(=S)[nH]2)cc1	269	0.97	131	0.72
Fc1cc(F)cc(C2=CCC[C@@H]2Cc2c[nH]c(=S)[nH]2)c1	1600	0.59	569	0.68
Fc1ccc(C2=CCCC2Cc2c[nH]c(=S)[nH]2)cc1 (stereo not drawn)	459	0.68	152	0.77
Fc1ccc(C2=CCCC2Cc2c[nH]c(=S)[nH]2)cc1F (stereo not drawn)	225	0.44	205	0.68
S=c1[nH]cc(CC2CCC=C2c2ccc(Cl)s2)[nH]1 (stereo not drawn)	1100	0.69	2760	0.75
Fc1ccccc1C1=CCCC1Cc1c[nH]c(=S)[nH]1 (stereo not drawn)	–	–	994	0.53
Fc1ccc(C2=CCCC2Cc2c[nH]c(=S)[nH]2)c(F)c1 (stereo not drawn)	219	0.42	290	0.62
Fc1ccc(F)c(C2=CCCC2Cc2c[nH]c(=S)[nH]2)c1 (stereo not drawn)	–	–	430	0.38
